Data on two molecules can be found in patent publication US20050215548A1 (Cyclacel Limited, priority 2002, published 2005).

SMILES strings stand for the structures. Residues, ends and D or L forms follow the SMILES beside them. *: point of attachment. Cbz = O=C(OCc1ccccc1)*; CH2F = FC*

In one experiment the test system is SJSA-1. Briefly: 72-h MTT cytotoxicity assay, SJSA-1. The format is cell-based. Particulars: Homo sapiens, SJSA-1; 72-h MTT; Table 1; read-out: IC50 Anti-proliferative effect on cell line SJSA-1. A digest of the protocol: (§1)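 Human tumour cells; SJSA-1 = bone sarcoma, wt p53, HDM2 overexpressed. H1299 = large cell lung ca., p53-null, low HDM2. AGS = gastric adenocarcinoma, wt p53. Endpoint: anti-proliferative potency.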

The subject of experiment [1] is key proteins in the HDM2 pathway. Briefly: SDS-PAGE and immunoblotting of key proteins in the HDM2 pathway. The format is cell-based, human. An excerpt: Equal amounts of cell lysate were separated by SDS-PAGE and analysed by immunoblotting using the indicated antibodies. An estimation of the extent of cell rounding is indicated above each lane. […] (B) The effect of compound 2 on the levels of the cell cycle proteins in AGS cells (wild-type 53). […] Equal amounts of cell lysate were separated by SDS-PAGE and analysed by immunoblotting using the indicated antibodies. An estimation of the extent of cell rounding is indicated above each lane. (C) The effect of negative control compound (refer Example 10), compound 2, cisplatin, and anisomycin on the levels of key proteins in MCF7 cells. […] Cisplatinum and anisomycin (a transcription inhibitor) treatments were with 50 μM or 37 μM, respectively. Cells were harvested at various time points; afterwards lysates were prepared and separated by SDS-PAGE and analysed by immunoblotting. The proteins detected are indicated. The extent of rounded or floating cells and the percentage viable cells were assessed. […] Equal amounts of cell lysate were separated by SDS-PAGE and analysed by immunoblotting using a range of antibodies. An estimation of the extent of cell rounding is indicated above each lane. […] SJSA1 cells were treated with 5 times [IC50] of compound 2 and collected at the indicated time points. Equal amounts of cell lysate were separated by SDS-PAGE and analysed by immunoblotting using a range of antibodies. An estimation of the extent of cell rounding is indicated above each lane.
Many types of cellular stress converge on the p53 pathway and induce its activity. […] The biological effect of bisarylsufonamides on cellular level was studies using representative compounds (mainly compound 2) and number of cell lines with different HDM2 and p53 status. These were overexpressing Hdm2 (SJSA1—osteosarcoma), wild type p53 and normal levels of HDM2 (AGS—gastric adenocarcinoma, MCF7—breast adenocarcinoma), or p53 null, low levels of HDM2 (H1299—large cell lung carcinoma).
Cells were lysed and equal amounts were analysed by SDS-polyacrylamide gel electrophoresis (SDS-PAGE) and immunoblotting.
(A western blot detects proteins with antibodies after separation by electrophoresis.)

The target of the next experiment is T1, HDM2 (Homo sapiens, UniProt Q00987).
T1 construct: Recombinant HDM2 (1.5 μg per well) in TBS-BSA buffer
T1 sequence (Q00987 whole entry): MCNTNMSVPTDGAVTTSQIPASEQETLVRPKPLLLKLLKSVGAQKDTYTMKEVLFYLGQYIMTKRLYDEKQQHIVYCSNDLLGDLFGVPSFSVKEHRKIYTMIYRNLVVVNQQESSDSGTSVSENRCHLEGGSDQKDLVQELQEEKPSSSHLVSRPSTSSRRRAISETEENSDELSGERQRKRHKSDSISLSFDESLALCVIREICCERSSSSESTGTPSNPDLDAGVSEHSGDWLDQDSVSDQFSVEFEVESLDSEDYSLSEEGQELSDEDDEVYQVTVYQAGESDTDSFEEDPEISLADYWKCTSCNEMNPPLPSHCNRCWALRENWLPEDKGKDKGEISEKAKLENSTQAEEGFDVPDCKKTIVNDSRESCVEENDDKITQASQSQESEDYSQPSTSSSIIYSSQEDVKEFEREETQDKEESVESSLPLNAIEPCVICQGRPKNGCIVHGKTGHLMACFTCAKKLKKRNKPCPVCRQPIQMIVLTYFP
Briefly: Fluorescence polarisation competitive HDM2 binding assay. Particulars: text of Example 10, refer Table 1; read-out: competitive inhibition IC50. The procedure, abridged: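 Recombinant HDM2 (1.5 μg/well) was preincubated 5 min at room temperature with serially diluted compound in 50 mM Tris pH 7.4, 150 mM NaCl, 0.1% BSA, 5% DMSO final. Fluorescein-labelled p53 peptide (0.2 μM) was then added for 45 min. Polarisation was read at 485/520 nm and IC50 derived from dose-response curves.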
(Fluorescence polarisation rises when a labelled molecule tumbles more slowly, as on binding a larger partner.)

The next experiment deals with AGS. Briefly: 72-h MTT cytotoxicity assay, AGS. The format is cell-based. As to conditions: Homo sapiens, 72-h MTT, Table 1, read-out: IC50 Anti-proliferative effect on cell line AGS. A digest of the protocol:
as §1
A general note: Tetrazolium assays rely on reduction of a dye to a coloured formazan, in cell work by metabolically active cells.

Experiment [2] relates to AGS, H1299, MCF7 or SJSA1 cells. Put plainly: Cell morphology (cell rounding). The format is cell-based, human. Particulars: five times IC50. An excerpt: Equal amounts of cell lysate were separated by SDS-PAGE and analysed by immunoblotting using the indicated antibodies. An estimation of the extent of cell rounding is indicated above each lane. The arrow indicates the position of a 85-kDa cleavage product of PARP, indicative of apoptosis. (B) The effect of compound 2 on the levels of the cell cycle proteins in AGS cells (wild-type 53). […] Equal amounts of cell lysate were separated by SDS-PAGE and analysed by immunoblotting using the indicated antibodies. An estimation of the extent of cell rounding is indicated above each lane. (C) The effect of negative control compound (refer Example 10), compound 2, cisplatin, and anisomycin on the levels of key proteins in MCF7 cells. […] Cisplatinum and anisomycin (a transcription inhibitor) treatments were with 50 μM or 37 μM, respectively. Cells were harvested at various time points; afterwards lysates were prepared and separated by SDS-PAGE and analysed by immunoblotting. The proteins detected are indicated. The extent of rounded or floating cells and the percentage viable cells were assessed. […] Equal amounts of cell lysate were separated by SDS-PAGE and analysed by immunoblotting using a range of antibodies. An estimation of the extent of cell rounding is indicated above each lane. […] SJSA1 cells were treated with 5 times [IC50] of compound 2 and collected at the indicated time points. Equal amounts of cell lysate were separated by SDS-PAGE and analysed by immunoblotting using a range of antibodies. An estimation of the extent of cell rounding is indicated above each lane.
Cells were treated with 5 times [IC50] of compound 2 and collected at various time points. The percentage of rounded cells was counted before cells were trypsinised and counted for cell viability using trypan blue.
Cells were lysed and equal amounts were analysed by SDS-polyacrylamide gel electrophoresis (SDS-PAGE) and immunoblotting. […] The reduction in E2F-1 levels correlated with reduction in E2F transcriptional activity as determined by an E2F-dependent luciferase reporter assay (refer Example 6).

The test system of a further experiment is H1299. Briefly: 72-h MTT cytotoxicity assay, H1299. The format is cell-based. As to conditions: Homo sapiens, NCI-H1299; 72-h MTT; Table 1; read-out: IC50 Anti-proliferative effect on cell line H 1299. A digest of the protocol:
as §1

The test system of a further experiment is AGS cells. Briefly: Caspase activity (casp ACE assay), AGS. The format is cell-based, human. Particulars: 24 hours. How it is done:
In more detail: (A) Cells were treated with […] [IC50] of compound 2 or cisplatinum and collected at the time points indicated. Cell lysates were prepared, the caspase activity was determined using the casp ACE assay and values were plotted on a graph. (B) Cells were treated with 5 times [IC50] of compound 2 or cisplatinum and collected at the time points indicated. AGS cells were also incubated with compound 2 in the presence of a caspase inhibitor Z-VAD.fmk. Cell lysates were prepared, the caspase activity was determined using the casp ACE assay and values were plotted on a graph.
To characterise the apoptosis-inducing properties of bisarylsulfonamides caspase ⅓ activty was measured. AGS or H1299 cells were treated with a low concentration of compound 2 or cisplatin corresponding to twice the IC50 value (FIG. 6A). Morphological changes were detected in 10-20% of cells by 72 hours corresponding to an induction of caspase activity first detected at 48 hours, increasing by 72 hours. We also treated AGS and H1299 cells with higher concentrations corresponding to five times the IC50 (FIG. 6B). In this experiment we included a […], Z-VAD.fmk to determine the caspase responsible.

For `O=[N+]([O-])c1csc(S(=O)(=O)Nc2ccc(Cl)cc2)c1` [Compound 69, 4-Nitro-thiophene-2-sulfonic acid (4-chloro-phenyl)-amide], the IC50 (in general, the concentration needed to halve the response being measured) in the experiment on SJSA-1 stood at 28 µM; on HDM2, 151 µM; with AGS, 19 µM; in the experiment on H1299, 30 µM. Moreover, the “PARP cleavage / PARP levels” value in experiment [1] (five times IC50, 85-kDa cleavage product marker for apoptosis) is on record as “Rapid reduction in PARP levels”. Further, the “changes in protein levels and cell morphology” value in experiment [1] (negative control: MCF7, 13.5 μM, 68/69: MCF7 and H1299 at five times IC50 of 69, 49: AGS, SJSA1, H1299) is “induced changes in both morphology and protein levels”. Besides, in experiment [2], the cell rounding entry is reported as “No rapid cell rounding”.
On to `COC(=O)C[C@H](NC(=O)[C@H](C)NC(=O)[C@@H](NC(=O)OCc1ccccc1)C(C)C)C(=O)CF` [Z-VAD.fmk, reference compound] (Cbz-Val-Ala-Asp(OMe)-CH2F), for which the “caspase activity induced by compound 2 in presence of caspase inhibitor” value in the experiment with AGS cells is “reduced the caspase activity to background levels”.
